≈ marks a conversion by molar mass, not a printed value. Entries after “also recorded” stand apart in the source; their conditions may differ. Where two headings read alike, the source gives them in different places. Where a SMILES comes first, the peptide text is derived from it.
Key:
[1] = test system: Staphylococcus aureus (NCTC 10788); type: cell-based; settings: for MBC: NCTC 10788, 18 h; for MIC: NCTC 10788, 24 h
Experimental: (§1) The minimal inhibitory concentrations (MICs) and minimum bactericidal concentrations (MBCs) were evaluated to determine the antimicrobial activity of synthetic peptides. The microorganisms employed in the study are two kinds of Gram-negative bacteria, Escherichia coli (NCTC 10418) and Pseudomonas aeruginosa (ATCC 27853), three kinds of Gram-positive bacteria, Staphylococcus aureus (NCTC 10788), Methicillin-resistant Staphylococcus aureus (MRSA, ATCC 12493) and Enterococcus faecalis (NCTC 12697) and a yeast, Candida albicans (NCPF 1467), as indicated previously. […] The sterilised broth medium was used as the positive control and the microorganism cultured in the medium only was treated as the negative control. […] The MBC results were defined as the lowest bactericidal concentrations of peptide. The antimicrobial activity of peptides was tested by monitoring the absorbance at 550 nm using an ELISA plate reader (Biolise BioTek EL808, Winooski, VT, USA).

[2] = test system: Candida albicans (NCPF 1467); type: cell-based; settings: for MBC: NCPF 1467, 18 h; for MIC: NCPF 1467, 24 h
Experimental: as §1

[3] = test system: Methicillin-resistant Staphylococcus aureus (MRSA, ATCC 12493); type: cell-based; settings: for MBC: ATCC 12493, 18 h; for MIC: ATCC 12493, 24 h
Experimental: as §1

[4] = test system: Enterococcus faecalis (NCTC 12697); type: cell-based; settings: for MBC: NCTC 12697, 18 h; for MIC: NCTC 12697, 24 h
Experimental: as §1

[5] = test system: Escherichia coli (NCTC 10418); type: cell-based; settings: for MBC: NCTC 10418, 18 h; for MIC: NCTC 10418, 24 h
Experimental: as §1

[6] = test system: Pseudomonas aeruginosa (ATCC 27853); type: cell-based; settings: for MBC: ATCC 27853, 18 h; for MIC: ATCC 27853, 24 h
Experimental: as §1

[7] = test system: Galleria mellonella larvae; assay: Toxicity to uninfected Galleria mellonella larvae; type: in vivo; settings: uninfected G. mellonella larvae injected with drug; n = 30 per group; vancomycin 20 mg/kg
Experimental: (§2) The in vivo study of antimicrobial activity of the peptides was evaluated using the larvae of Galleria mellonella, which was described in the previous study with minor modifications. The larvae of Galleria mellonella (250 ± 25 mg; Livefood UK Ltd., Rooks Bridge, UK) were selected. The MRSA culture was prepared the same way as the antimicrobial activity assay. Then, MRSA cells were collected and washed, and further diluted to 10^8 CFU/mL in the saline. Ten µL of MRSA suspension was injected to the larvae and placed in a petri dish. After 2 h, the MRSA infected larvae were administrated with 10 µL of peptides (25 mg/kg, 50 mg/kg) by injection. Saline and vancomycin (20 mg/kg) (Sigma-Aldrich, UK) were used as the negative control and positive control, respectively. Each sample group contained 10 larvae, and the experiment was repeated three times (30 larvae for each group in total). The survival curves were achieved using Prism (Version 6.0; GraphPad Software Inc., San Diego, CA, USA) and the log-rank test was employed to analyze the significance between the different treatments and the controls. * (p < 0.05), ** (p < 0.01) and *** (p < 0.001) represent statistical significance.
Figure A9 Larvae without any MRSA infection were injected with peptides and vancomycin respectively to access the cytotoxicity of the drugs to larvae bodies. […] Effect of treatment of G. mellonella larvae (n = 30 for each group) without any infection and only treated with 5 µL vancomycin (20 mg/kg), OSd, OSe and OSf.

P. aeruginosa = type: cell-based, Pseudomonas aeruginosa; settings: 24 h
Experimental: (§3) The minimal inhibitory concentrations (MICs) and minimum bactericidal concentrations (MBCs) were evaluated to determine the antimicrobial activity of synthetic peptides. The microorganisms employed in the study are two kinds of Gram-negative bacteria, Escherichia coli (NCTC 10418) and Pseudomonas aeruginosa (ATCC 27853), three kinds of Gram-positive bacteria, Staphylococcus aureus (NCTC 10788), Methicillin-resistant Staphylococcus aureus (MRSA, ATCC 12493) and Enterococcus faecalis (NCTC 12697) and a yeast, Candida albicans (NCPF 1467), as indicated previously. For antimicrobial assays, 5 × 10^5 CFU/mL of bacterial suspensions were incubated with the concentrations of the peptides (ranging from 1 µM to 512 µM) for 24 h at 37 °C. The sterilised broth medium was used as the positive control and the microorganism cultured in the medium only was treated as the negative control. […] The MBC results were defined as the lowest bactericidal concentrations of peptide. The antimicrobial activity of peptides was tested by monitoring the absorbance at 550 nm using an ELISA plate reader (Biolise BioTek EL808, Winooski, VT, USA).
(§4) The activity of peptides in the different environmental conditions including different concentrations of NaCl (50, 100 and 150 mM) and MgCl2 (0.5, 1 and 2 mM), pH (6, 7 and 8), temperature (50 °C, 75 °C and 100 °C) and 10% fetal bovine serum (FBS) solution, was evaluated using the broth microdilution assay as described in the antimicrobial activity assay. For the stability test of peptides in the presence of salt, pH and serum, these conditions were adjusted in the fresh medium that was further used to dilute the bacteria suspension. The peptides were also dissolved in such broth and mixed with the bacteria suspension in the 96 well plate. For the thermal stability test, the peptides were dissolved in the water and incubated at different temperature for 15 min before dosing in the plate. The sterilised broth with corresponding conditions was used as the positive controls, and the bacteria suspension without any treatment was used as the negative controls.

S. aureus = type: cell-based, Staphylococcus aureus; settings: 24 h
Experimental: as §3, §4

MRSA [8] = type: cell-based, Staphylococcus aureus; settings: 24 h
Experimental: as §3, §4

horse red blood cells = assay: Haemolysis assay and therapeutic index; settings: 2% horse red blood cells in PBS, 2 h, 37 °C, absorbance 570 nm; best-fitted curve
MRSA [9] = assay: Treatment of MRSA-infected Galleria mellonella larvae; type: in vivo; settings: 10 µL of 10^8 CFU/mL MRSA injected; peptide 25 or 50 mg/kg injected after 2 h; 30 larvae per group
Experimental: as §2

## CC(C)C[C@H](NC(=O)[C@H](C)NC(=O)[C@H](Cc1c[nH]c2ccccc12)NC(=O)[C@H](CCCCN)NC(=O)[C@H](CC(C)C)NC(=O)[C@@H](N)Cc1ccccc1)C(=O)N[C@@H](CCCCN)C(=O)N[C@H](C(=O)N[C@@H](C)C(=O)N[C@@H](C)C(=O)N[C@@H](CCCCN)C(N)=O)C(C)C [OSd] (H-FLKWALKVAAK-NH2)
[1]
  MBC: 32 µM (≈ 40.8 µg/mL)
  MIC: 16 µM (≈ 20.4 µg/mL)
[2]
  MBC: 32 µM (≈ 40.8 µg/mL)
  MIC: 16 µM (≈ 20.4 µg/mL)
[3]
  MBC: 32 µM (≈ 40.8 µg/mL)
  MIC: 32 µM (≈ 40.8 µg/mL)
[4]
  MBC: 64 µM (≈ 81.5 µg/mL)
  MIC: 32 µM (≈ 40.8 µg/mL)
[5]
  MBC: 32 µM (≈ 40.8 µg/mL)
  MIC: 32 µM (≈ 40.8 µg/mL)
[6]
  MBC: 64 µM (≈ 81.5 µg/mL)
  MIC: 64 µM (≈ 81.5 µg/mL)
[7]
  toxicity to larvae without MRSA infection: No noticeable cytotoxicity
P. aeruginosa; pH 6
  MIC: 128 µM (≈ 163 µg/mL)
P. aeruginosa; pH 7
  MIC: 128 µM (≈ 163 µg/mL)
P. aeruginosa; pH 8
  MIC: 64 µM (≈ 81.5 µg/mL)
S. aureus; pH 6
  MIC: 64 µM (≈ 81.5 µg/mL)
S. aureus; pH 7
  MIC: 32 µM (≈ 40.8 µg/mL)
S. aureus; pH 8
  MIC: 32 µM (≈ 40.8 µg/mL)
MRSA [8]; pH 6
  MIC: 256 µM (≈ 326 µg/mL)
MRSA [8]; pH 7
  MIC: 128 µM (≈ 163 µg/mL)
MRSA [8]; pH 8
  MIC: 64 µM (≈ 81.5 µg/mL)

## CC(C)C[C@H](NC(=O)[C@H](C)NC(=O)[C@H](Cc1c[nH]c2ccccc12)NC(=O)[C@H](CCCCN)NC(=O)[C@H](CC(C)C)NC(=O)[C@@H](N)Cc1ccccc1)C(=O)N[C@@H](CCCCN)C(=O)N[C@@H](Cc1c[nH]c2ccccc12)C(=O)N[C@@H](C)C(=O)N[C@@H](C)C(=O)N[C@@H](CCCCN)C(N)=O [OSe] (H-FLKWALKWAAK-NH2)
[1]
  MBC: 4 µM (≈ 5.44 µg/mL)
  MIC: 4 µM (≈ 5.44 µg/mL)
[2]
  MBC: 4 µM (≈ 5.44 µg/mL)
  MIC: 4 µM (≈ 5.44 µg/mL)
[3]
  MBC: 8 µM (≈ 10.9 µg/mL)
  MIC: 8 µM (≈ 10.9 µg/mL)
[4]
  MBC: 16 µM (≈ 21.8 µg/mL)
  MIC: 16 µM (≈ 21.8 µg/mL)
[5]
  MBC: 16 µM (≈ 21.8 µg/mL)
  MIC: 16 µM (≈ 21.8 µg/mL)
[6]
  MBC: 16 µM (≈ 21.8 µg/mL)
  MIC: 16 µM (≈ 21.8 µg/mL)
[7]
  toxicity to larvae without MRSA infection: No noticeable cytotoxicity
P. aeruginosa; pH 6
  MIC: 32 µM (≈ 43.5 µg/mL)
P. aeruginosa; pH 7
  MIC: 64 µM (≈ 87.1 µg/mL)
P. aeruginosa; pH 8
  MIC: 32 µM (≈ 43.5 µg/mL)
Horse red blood cells
  HC50 (concentration causing 50% haemolysis of the red blood cells): 64.03 µM
S. aureus; pH 6
  MIC: 16 µM (≈ 21.8 µg/mL)
S. aureus; pH 7
  MIC: 8 µM (≈ 10.9 µg/mL)
S. aureus; pH 8
  MIC: 4 µM (≈ 5.44 µg/mL)
MRSA [8]; pH 6
  MIC: 64 µM (≈ 87.1 µg/mL)
MRSA [8]; pH 7
  MIC: 16 µM (≈ 21.8 µg/mL)
MRSA [8]; pH 8
  MIC: 8 µM (≈ 10.9 µg/mL)

## CC(C)C[C@H](NC(=O)[C@H](C)NC(=O)[C@H](Cc1c[nH]c2ccccc12)NC(=O)[C@H](CCCCN)NC(=O)[C@@H]1CCCN1C(=O)[C@H](CC(C)C)NC(=O)[C@@H](N)Cc1ccccc1)C(=O)N[C@@H](CCCCN)C(=O)N[C@@H](Cc1c[nH]c2ccccc12)C(=O)N[C@@H](C)C(=O)N[C@@H](C)C(=O)N[C@@H](CCCCN)C(N)=O [OSf] (H-FLPKWALKWAAK-NH2; N-terminus assumed)
[1]
  MBC: 16 µM (≈ 23.3 µg/mL)
  MIC: 8 µM (≈ 11.7 µg/mL)
[2]
  MBC: 16 µM (≈ 23.3 µg/mL)
  MIC: 8 µM (≈ 11.7 µg/mL)
[3]
  MBC: 64 µM (≈ 93.3 µg/mL)
  MIC: 16 µM (≈ 23.3 µg/mL)
[4]
  MBC: 64 µM (≈ 93.3 µg/mL)
  MIC: 32 µM (≈ 46.7 µg/mL)
[5]
  MBC: 16 µM (≈ 23.3 µg/mL)
  MIC: 8 µM (≈ 11.7 µg/mL)
[6]
  MBC: 64 µM (≈ 93.3 µg/mL)
  MIC: 64 µM (≈ 93.3 µg/mL)
[7]
  toxicity to larvae without MRSA infection: No noticeable cytotoxicity
P. aeruginosa; pH 6
  MIC: 128 µM (≈ 187 µg/mL)
P. aeruginosa; pH 7
  MIC: 256 µM (≈ 373 µg/mL)
P. aeruginosa; pH 8
  MIC: 64 µM (≈ 93.3 µg/mL)
Horse red blood cells
  HC50 (concentration causing 50% haemolysis of the red blood cells): 328.3 µM
MRSA [9]
  mortality of MRSA-infected larvae: dramatically decreased the mortality; also recorded: reduced the mortality
S. aureus; pH 6
  MIC: 128 µM (≈ 187 µg/mL)
S. aureus; pH 7
  MIC: 8 µM (≈ 11.7 µg/mL)
S. aureus; pH 8
  MIC: 16 µM (≈ 23.3 µg/mL)
MRSA [8]; pH 6
  MIC: 512 µM (≈ 746 µg/mL)
MRSA [8]; pH 7
  MIC: 16 µM (≈ 23.3 µg/mL)
MRSA [8]; pH 8
  MIC: 32 µM (≈ 46.7 µg/mL)

Source: publication PMC7472354, “Enhanced Antimicrobial Activity of N-Terminal Derivatives of a Novel Brevinin-1 Peptide from The Skin Secretion of Odorrana schmackeri” (Toxins, 2020)
